Reference: patent US20030031715A1, “Pharmaceutical applications of hydrotropic agents, polymers thereof, and hydrogels thereof” (priority 2000, published 2003)
In brackets after ≈: the same amount, converted by molar mass.

Key:
Assay in all cases: Antitumor cytotoxicity GI50, MTT bioassay
Assay type in all cases: cell-based
A-498 = conditions: Homo sapiens, A498, A-498 (kidney)
Text: (§1) Purdue Cancer Center Cell Culture Laboratory has provided bioassay service for measuring antitumor cytotoxicity for many years. […] The standard bioassay is done in 96-well microtiter plates using MTT [3-(4,5-dimethylthiazole-2-yl)-2,5-diphenytetrazolium bromide]. MTT is cleaved in the mitochondria of live cells to produce a dark blue formazan product. […] Adriamycin is used as an internal reference antitumor agent for the quality control of the standardized cytotoxicity assay.
(§2) The results of cytotoxicity evaluations are compared with those of animal experiments to examine what formulations were optimal for each experiment.

A-549 = conditions: Homo sapiens, A549, A-549 (lung)
Text: as §1, §2

PaCa-2 = conditions: Homo sapiens, PaCa-2 (pancreas)
Text: as §1, §2

PC-3 = conditions: Homo sapiens, PC-3 (prostate)
Text: as §1, §2

MCF-7 = conditions: Homo sapiens, MCF7, MCF-7 (breast)
Text: as §1, §2

HT-29 = conditions: Homo sapiens, HT-29 (colon)
Text: as §1, §2

`COc1cccc2c1C(=O)c1c(O)c3c(c(O)c1C2=O)C[C@@](O)(C(=O)CO)C[C@@H]3O[C@H]1C[C@H](N)[C@H](O)[C@H](C)O1` [Adriamycin] was tested, and the GI50 (A-498) was 0.005 µg/mL (≈ 0.0092 µM), the GI50 (A-549) was 0.005 µg/mL (≈ 0.0092 µM) and the GI50 (PaCa-2) was 0.005 µg/mL (≈ 0.0092 µM). The GI50 (PC-3) was 0.02 µg/mL (≈ 0.0368 µM), the GI50 (MCF-7) was 0.2 µg/mL (≈ 0.368 µM) and the GI50 (HT-29) was 0.03 µg/mL (≈ 0.0552 µM).
